# Data taken from PubChem BioAssay AID179 (DTP/NCI, 2004).
# Activity calls are given as the source filed them.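 How the source made its calls: active means compounds giving half or more protection of infected cells from virus-caused growth loss, again on retest; inactive means the rest.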
# System: CEM cells HIV-1 protection, formazan growth assay
# Assay: NCI AIDS Antiviral Assay
# Conditions: for IC50: measured here: growth of uninfected CEM cells
# Method in brief: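 Human CEM cells, uninfected and HIV-1-infected, received five drug concentrations, and growth was read by soluble formazan assay. Compounds giving at least 50% protection were retested; reproducible 100% protection defined confirmed active.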
Compound,EC50 [µM],IC50 [µM],outcome
O=C1N=CN=C2C=CC(Cl)=C(I)C12 (stereo unspecified),> 85.1,> 85.1,–
CN(C)c1ccc(Cc2cc(C(C)(C)C)cc(C(C)(C)C)c2O)cc1,–,–,inactive
OCCOCCO[P+]1(OCCOCCO)n2c3ccc2C(c2ccccc2)=C2C=CC(=N2)C(c2ccccc2)=c2ccc(n21)=C(c1ccccc1)C1=NC(=C3c2ccccc2)C=C1,> 100,0.0794,–
CCCCCC(=O)OC1(C(C)=O)CCC2C3CCC4=CC(=O)CCC4C3CCC21C (stereo unspecified),> 200,14.5,–
COC(=O)C(C(=O)C(=O)Nc1nc(=S)[nH][nH]1)c1csc(-n2nc(-c3ccccc3)cc2-c2ccccc2)n1 (stereo unspecified),> 69.2,> 69.2,–
C1SCSCS1,> 200,> 200,–
CC(C)(C)OC(=O)NC1CCC[C@H]1O (stereo partly specified),–,–,inactive
O=[N+]([O-])c1c(Br)cc(Br)c2c1Nc1c(ccc(Cl)c1Cl)S2,> 200,4.9,–
O=C(COc1ccc2c(=O)cc(-c3ccccc3)oc2c1)N1CCN(c2ccccc2)CC1,> 16.2,> 16.2,–
Cc1ccc2nc(-c3ccc(-c4nc5ccc(C)cc5o4)c(O)c3)oc2c1,> 200,> 200,–
Cc1nc2ccccc2n(CC2CCCN3CCCC[C@H]23)c1=O (stereo partly specified),> 200,> 200,–
COc1ccc(-c2cc3cc(Cl)cc(Cl)c3oc2=O)cc1OC,> 200,186,–
O=c1[nH]c(=O)c2c([nH]1)[nH]c1ccc(Br)cc12,> 200,34.7,–
CSC1(CC(=O)N(C)C)C(=O)Nc2ccccc21 (stereo unspecified),> 200,> 200,–
O=C(/C=C/c1ccccc1)C[C@@H](O)C[C@@H]1CC=CC(=O)O1,> 200,3.16,–
Cc1ccc(Nc2nc(-c3ccc(-c4ccc([N+](=O)[O-])cc4)o3)cs2)cc1,> 10,> 10,–
O=C(CC(=O)n1nc(-c2ccccc2)c(N=Nc2ccc(Cl)cc2)c1-c1ccccc1)Nc1cccc(Cl)c1,> 200,81.3,–
CC(=O)C(=Cc1cccc(Cl)c1)C(C)=O,> 162,26.3,–
CCCCCCCCCCCCCCCCOC1OC(CBr)C(O)C(O)C1O (stereo unspecified),> 8.13,> 8.13,–
C1CC(C2OCOC3COCOC32)OO1 (stereo unspecified),> 200,> 200,–
CNC(=O)O/N=C1\N(C)CN(c2ccccc2)C12CCN(CCCC(=O)c1ccc(F)cc1)CC2,> 200,105,–
C=CCOC(C)(C)C1=CCC(C)CC1 (stereo unspecified),> 100,> 100,–
COC(=O)C1=C(C(=O)OC)C2(C)Nc3ccccc3C2=C(c2ccccc2)C1 (stereo unspecified),> 19.1,> 19.1,–
COC(=O)NC12CC3CC(CC(F)(C3)C1)C2,> 575,145,–

Compound,EC50 [µM],IC50 [µM],outcome
Cc1cc(C23OC4COC(C)(C)OC4C2OC(C)(C)O3)nc2ccccc12 (stereo unspecified),> 200,102,–
COC(=O)c1ccccc1C1CN=NC12Cc1c(ccc(C)c1C)C2=O (stereo unspecified),> 151,> 151,–
C#CC(C)(C)Oc1cc(O)c2c(=O)c3ccccc3n(C)c2c1,> 23.4,> 23.4,–
Cc1ccc(S(=O)(=O)N2CCC(C(=O)O)=Cc3c2[nH]c(=O)n(-c2ccccc2)c3=O)cc1,> 288,> 288,–
CN(C)CCN1CCC(Cc2ccccc2)CC1,> 200,72.4,–
CC(=O)Nc1ccc(S2=Nc3ccccc3S2)cc1 (stereo unspecified),> 49,16.2,–
CCOC(=O)C(NC(=O)c1ccccc1)(Nc1ccc(S(=O)(=O)Nc2ncccn2)cc1)C(F)(F)F (stereo unspecified),> 200,> 200,–
CC(=O)CC1(OC(=O)C2C(C=C(C)C)C2(C)C)C(=O)Nc2ccccc21 (stereo unspecified),> 200,105,–
COc1ccc(C(O)C2c3c(cc4c(c3OC)OCO4)CCN2C)c(CO)c1OC (stereo unspecified),–,–,inactive
CC1C(=O)CC2C3(C)CCC2(C(C)C(=O)O)C(=O)C13 (stereo unspecified),> 275,224,–
O=C(O)CN(c1ccc(Cl)cc1)S(=O)(=O)c1ccccc1,–,–,inactive
COC1C2C=CC(C2)[C@H]1[N+](=O)[O-] (stereo partly specified),–,–,inactive
Cc1nn(C(=O)c2ccc(Cl)cc2)c2c1C(c1ccc(Cl)cc1)SC(N)=N2 (stereo unspecified),> 200,36.3,–
COC1=NC2=NCCN2C(OC)=N1,> 200,> 200,–
COC(=O)C1C2CC3C(OC(=O)C31)C2I (stereo unspecified),–,–,inactive
CN(C)CCC(=O)N1C/C(=C\c2ccc(Cl)c(Cl)c2)C(=O)/C(=C/c2ccc(Cl)c(Cl)c2)C1,> 33.9,0.0437,–
CCCC(=O)Nc1cc([N+](=O)[O-])c([N+](=O)[O-])cc1OC,> 200,10.7,–
COC1=C(OC)CCC(/C(C#N)=C/c2ccc(OC)c(OC)c2)=C1,> 41.7,21.4,–
Cc1nnc2n1-c1ccccc1C(=S)N1CSCC21 (stereo unspecified),> 200,> 200,–
CC1(C)CC(c2c[nH]c3ccccc23)=CC2=Nc3ccccc3C21O (stereo unspecified),–,–,inactive
CCOc1ccc(NC(=O)C(=O)CC(=O)c2c[n+](=O)c3cc(C)c(C)cc3n2[O-])cc1,> 8.51,> 8.51,–
O=c1c2ccccc2nc(-c2ccccc2)n1/N=C/c1ccccc1[N+](=O)[O-],> 50.1,> 50.1,–
CCOC(=O)CCCCCNc1nc(Cl)nc(Cl)n1,> 200,> 200,–
N#Cc1ccc(-c2nc3c(N)ncnc3o2)cc1,> 200,> 200,–

Compound,EC50 [µM],IC50 [µM],outcome
CCCCN(CC)C(=O)C(=O)C1C(=O)Nc2ccccc2S1=O (stereo unspecified),> 204,> 204,–
O=c1[nH]c2ccc(CC(=S)N3CCOCC3)cc2s1,> 200,> 200,–
COc1ccc2c(=O)c(-c3ccccc3)c(C)oc2c1,> 200,75.9,–
c1c2c(cc3c1OCN(C1CC1)C3)OCN(C1CC1)C2,> 51.3,4.27,–
CCCCCCCCOC1N(C2CC(N=[N+]=[N-])C(CO)O2)C(=O)NC(=O)[C@]1(C)Cl (stereo partly specified),> 200,37.2,–
CN(C)CCNc1ccc2ncnc3c2c1C(=O)c1ccccc1-3,> 1,0.219,–
CC[N+](C)(C)C1=C([O-])C(F)(F)C1=O,> 200,> 200,–
Cc1ccc(-n2[nH]nc(C(N)=O)c2=O)cc1,> 200,> 200,–
O=C1NC(=O)/C(=C\c2cccc(O)c2)N1,> 200,> 200,–
NC(=S)Nc1[nH]c(=S)nc2[nH]ccc12,> 91.2,83.2,–
O=C(OCc1ccccc1)N(Cc1ccccc1)S(=O)(=O)c1ccccc1,> 200,> 200,–
C#Cc1cccc(N2C(=O)CCC2=O)c1,> 468,17.4,–
NC(CCCCNc1ccn(C2OC(CO)C(O)C2O)c(=O)n1)C(=O)O (stereo unspecified),> 100,5.5,–
CSc1nc(NC2CCCC2)c2cc[nH]c2n1,> 200,43.7,–
S=C(N/N=C\c1ccccn1)N(Cc1ccccn1)Cc1ccccn1,> 2,0.955,–
O=C1N=NC(Cl)c2ccccc21 (stereo unspecified),> 28.8,> 28.8,–
O=S(=O)(O)C(Br)(Br)Br,> 200,> 200,–
O=C1CCCN1CC#CCN1C[C@@H]2C3CCC(C3)[C@@H]2C1,> 200,170,–
CC(C)(C)c1ccc(SSc2ccc(C(C)(C)C)cc2)cc1,> 200,12.3,–
Cc1cccc(/C=N/NC(=S)NC2CCCCC2)n1,> 200,10,–
COc1ccc(/C=c2\[nH]c3nc(=O)c(N4CCOCC4)c(N)n3c2=O)cc1,> 200,> 200,–
CC1CC[C@]2(C(=O)O)CCC3(C)C(=CCC4[C@@]5(C)CC[C@H](OS(=O)(=O)c6ccccc6)C(C)(C)C5CC[C@]43C)[C@@H]2[C@H]1C (stereo partly specified),–,–,inactive
COc1cc(-c2cc(=O)c3ccc(O)cc3o2)cc(OC)c1OC,> 200,> 200,–
O=c1[nH]c(=O)n(C2OC(CO)C(O)C2O)c2nc(-c3ccc(-c4ccccc4)cc3)cnc12 (stereo unspecified),> 200,> 200,–

Compound,EC50 [µM],IC50 [µM],outcome
CN(O)C(=O)CCCC(=O)NCC(C)(C)CNC(=O)CCCC(=O)N(C)O,> 200,> 200,–
CCOC(=O)/C(O)=C1\C(=O)N(C)C(=O)C1c1ccc(OC)c(OC)c1 (stereo unspecified),–,–,inactive
O=c1c2c(sc3ccccc13)NCN(CCc1ccccc1)C2,17.4,40.7,–
CCC1(C)CC(=O)NC1=O (stereo unspecified),> 37.2,> 37.2,–
CN(O)C(=O)c1cccc(Cl)c1,> 200,112,–
c1cc2c(cc1NC1=NCCO1)CCCC2,> 200,1.55,–
CC1C(=O)NC(=O)NC1=O,> 200,> 200,–
N[C@@H](Cc1ccccc1)C(=O)N1CCC[C@@H]1P(=O)(Oc1ccccc1)Oc1ccccc1,–,–,inactive
Cc1[nH]c(N)nc(=S)c1CCC(=O)O,> 200,> 200,–
OC1CCCCCCCCCCC1SCCCCl (stereo unspecified),> 200,> 200,–
O=c1[nH]cnc2c1ncn2[C@H]1CO[C@@H](CO)[C@@H]1O,> 100,> 100,–
COc1ccc2[nH]c(C(O)(Cc3cccnc3)Cc3cccnc3)cc2c1,191,> 200,–
Cc1ccc(C)c(NC(=O)C(=O)C(C2C(C)CC(=O)C2CC(=O)O)[N+](=O)[O-])c1 (stereo unspecified),> 646,> 646,–
Cc1ccc(SC(=O)N2C(=S)NC(=NC3CCCCC3)C23CCCCC3)cc1,> 200,32.4,–
COC(=NC(C)C)NC(C)C,> 200,> 200,–
CCCCCCCNC1=C(O)c2ccccc2C(=O)C1=O,> 200,55,–
O=C1/C(=C/c2ccc(Br)s2)NC(=S)N1c1ccccc1,> 200,95.5,–
O=C(c1ccccc1)C1(C(=O)c2ccccc2)/C(=N\O)C2CCC1C2 (stereo unspecified),> 53.7,20.9,–
COC(=O)C(C)S(=O)(=O)O (stereo unspecified),> 200,> 200,–
Nc1ccc2c(c1)CN1C(=O)c3ccccc3C1=N2,> 15.1,2.95,–
CCCn1c(=O)c2ccccc2[n+]2c(-c3ccc([N+](=O)[O-])cc3)csc12,> 200,> 100,–
